{
  "source": "patent US5334619A",
  "about": "“Inhibition of postharvest fruit decay by 2-nonanone” (priority 1993, dated 1994)",
  "key": {"[1]": {"test_system": "composite spore suspension of A. alternata, B. cinerea and C. gloeosporioides on red raspberries", "test": "Fungal growth on inoculated raspberry fruit exposed to volatile compounds", "conditions": "0.4 μl/ml vapor, 10 days, 10° C.; mean, 0 = no fungi present, 3 = fruit completely covered by fungal mycelia", "description": "(§1) Fungal cultures of A. alternata and B. cinerea were obtained from the Agricultural Research Service, NRRL Culture Collection in Peoria, Ill. […] An isolate of C. gloeosporioides pathogenic on blueberries was obtained from the USDA/ARS Cranberry and Blueberry Research Center, Chatsworth, N.J. All cultures were maintained at 24° C. and 95% relative humidity on V-8 juice agar supplemented with 0.3% CaCO3 and adjusted to pH 5.8. Spores of each fungus were removed from sporulating cultures by carefully brushing the surface of the media with a glass rod and suspending the spores in sterile water. The concentrations of spores in the suspensions were adjusted to concentrations of 10^6 to 10^7 spores/ml. These suspensions were mixed together to form a composite suspension which was used to inoculate all the fruit in a given experiment.\n(§2) Untreated red raspberries (cv. `Heritage`) and strawberries (cv. `Ozark Beauty`) were harvested and used the same day. Berries were selected on the basis of uniform size, color, firmness, and absence of evidence of defects or diseases.\n(§3) A bioassay system was developed to test the effects of the volatile compounds on fungal growth both on intact fruit and on V-8 juice medium. The apparatus consisted of 75 ml glass jars into which either fruit or sterilized V-8 juice medium (10 ml) were added. […]"}, "[2]": {"test_system": "composite spore suspension of A. alternata, B. cinerea and C. gloeosporioides on strawberries", "test": "Fungal growth on inoculated strawberry fruit exposed to volatile compounds", "conditions": "0.4 μl/ml vapor, 10 days, 10° C.; mean, 0 = no fungi present, 3 = fruit completely covered by fungal mycelia", "description": "as §1, §2, §3"}, "[3]": {"test_system": "red raspberries (cv. `Heritage`)", "test": "Fruit damage rating of inoculated raspberry fruit exposed to volatile compounds", "set-up": "species or system Rubus idaeus L.", "conditions": "0.4 μl/ml vapor, 10 days, 10° C.; mean, 0 = intact, undamaged fruit, 3 = whole fruit necrotic and watersoaked", "description": "as §2\n(§4) A bioassay system was developed to test the effects of the volatile compounds on fungal growth both on intact fruit and on V-8 juice medium. The apparatus consisted of 75 ml glass jars into which either fruit or sterilized V-8 juice medium (10 ml) were added. These jars were placed in 275 ml airtight glass jars with aluminum foil cap liners. The bottom of each 275 ml jar was fitted with a 5.5 cm filter paper disk (Whatman No. 1) for application of the appropriate amount of test compound. The total gas headspace in the larger jars after the addition of all components was 250 ml.\n(§5) Red raspberries and strawberries were rinsed with sterile distilled water and allowed to dry before inoculation. The fruit was sprayed with the spore suspension to runoff. Single red raspberries or strawberries were placed in the 75 ml jars, and 100 μl each of a single test compound was added to the filter paper on the bottom of a 275 ml jar. The 275 ml jar was then sealed. Fruit were kept at 10° C. in the dark for 10 days then rated for development of fungi and for damage to the fruit due to the treatments. […]"}, "[4]": {"test_system": "strawberries (cv. `Ozark Beauty`)", "test": "Fruit damage rating of inoculated strawberry fruit exposed to volatile compounds", "set-up": "species or system Fragaria ananassa, Duchesne", "conditions": "0.4 μl/ml vapor, 10 days, 10° C.; mean, 0 = intact, undamaged fruit, 3 = whole fruit necrotic and watersoaked", "description": "as §2, §4, §5"}, "[5]": {"test_system": "A. alternata", "test": "Treatment of isolated cultures with 2-nonanone vapor", "format": "cell-based, Alternaria alternata", "conditions": "7 days, 10° C., 0 = no growth, 4 = media completely covered", "description": "as §1, §4\n(§6) The fungi assayed against included B. cinerea, C. gloeosporioides and A. alternata. The compound was bioassayed as a volatile using the apparatus described in Example 1 by placing 7 mm diameter plugs of mycelia from actively-growing 1 week-old cultures on V-8 juice media in the 75 ml jars, with the appropriate amount (0, 5, 10, 25 or 100 μl ) of compound applied to the filter paper on the bottom of the larger jar. Assuming complete volatilization, these amounts would produce a nonanone concentration within the headspace of 0.02, 0.04, 0.10, and 0.40 μL/ml, respectively. The sealed jars were then placed in a growth chamber in the dark at 10° C. for 7 days. Due to growth of fungi limited to the plug in many cases and the difficulty of accurately measuring the fungal growth in the jars, a rating system was developed as follows: 0, no growth of fungi, including on plug; 1, growth on plug only; 2, small amount of fungal growth on medium; 3, most of medium covered with fungal mycelia; and 4, all of medium covered. The treatment was replicated three times and the data were treated by statistical analysis of variance."}, "[6]": {"test_system": "B. cinerea", "test": "Treatment of isolated cultures with 2-nonanone vapor", "format": "cell-based, Botrytis cinerea", "conditions": "7 days, 10° C., 0 = no growth, 4 = media completely covered", "description": "as §1, §4, §6"}, "[7]": {"test_system": "C. gloeosporioides", "test": "Treatment of isolated cultures with 2-nonanone vapor", "format": "cell-based, Colletotrichum gloeosporioides", "conditions": "7 days, 10° C., 0 = no growth, 4 = media completely covered", "description": "as §1, §4, §6"}, "[8]": {"test_system": "A. alternata", "test": "Radial growth of cultures with 2-nonanone in the growth medium", "format": "cell-based", "conditions": "Alternaria alternata, read-out: Fungal Growth (% of control), A. alternata", "description": "as §1, with “experiment. 2-Nonanone was assayed as a medium component by adding an appropriate amount to cooled V-8 juice media in 9.0 cm plastic petri dishes. Experiments were initiated by placing 7 mm plugs of mycelia in the center of the petri dishes. As the cultures were nearly circular, the radii (from the inoculum plug to one typical point on the growing margin) of the cultures were measured and expressed as a percentage of the control. The treatment was replicated five times and the data were treated by analysis of variance.” for “experiment.”"}, "[9]": {"test_system": "B. cinerea", "test": "Radial growth of cultures with 2-nonanone in the growth medium", "format": "cell-based", "conditions": "Botrytis cinerea, read-out: Fungal Growth (% of control), B. cinerea", "description": "as §1, with “experiment. 2-Nonanone was assayed as a medium component by adding an appropriate amount to cooled V-8 juice media in 9.0 cm plastic petri dishes. Experiments were initiated by placing 7 mm plugs of mycelia in the center of the petri dishes. As the cultures were nearly circular, the radii (from the inoculum plug to one typical point on the growing margin) of the cultures were measured and expressed as a percentage of the control. The treatment was replicated five times and the data were treated by analysis of variance.” for “experiment.”"}, "[10]": {"test_system": "C. gloeosporioides", "test": "Radial growth of cultures with 2-nonanone in the growth medium", "format": "cell-based", "conditions": "Colletotrichum gloeosporioides, read-out: Fungal Growth (% of control), C. gloeosporioides", "description": "as §1, with “experiment. 2-Nonanone was assayed as a medium component by adding an appropriate amount to cooled V-8 juice media in 9.0 cm plastic petri dishes. Experiments were initiated by placing 7 mm plugs of mycelia in the center of the petri dishes. As the cultures were nearly circular, the radii (from the inoculum plug to one typical point on the growing margin) of the cultures were measured and expressed as a percentage of the control. The treatment was replicated five times and the data were treated by analysis of variance.” for “experiment.”"}, "[11]": {"test_system": "rat", "conditions": "cited from earlier work"}},
  "data": [
    {"smiles": "CCCCCCCC(C)=O", "note": "[2-Nonanone, 2-nonanone]", "values": [
      {"measurement": "Fungal Rating, Raspberry", "setting": "[1]", "result": 0.0},
      {"measurement": "Fungal Rating, Strawberry", "setting": "[2]", "result": 0.0},
      {"measurement": "Fruit damage rating, Raspberry", "setting": "[3]", "result": 2.0},
      {"measurement": "Fruit damage rating, Strawberry", "setting": "[4]", "result": 1.7},
      {"measurement": "Fungal Growth Rating, A. alternata", "setting": "[5]; vapor phase 0.02 μl/ml", "result": 2.7},
      {"measurement": "Fungal Growth Rating, A. alternata", "setting": "[5]; vapor phase 0.04 μl/ml", "result": 1.3},
      {"measurement": "Fungal Growth Rating, A. alternata", "setting": "[5]; vapor phase 0.10 μl/ml", "result": 0.0},
      {"measurement": "Fungal Growth Rating, A. alternata", "setting": "[5]; vapor phase 0.40 μl/ml", "result": 0.0},
      {"measurement": "Fungal Growth Rating, B. cinerea", "setting": "[6]; vapor phase 0.02 μl/ml", "result": 1.0},
      {"measurement": "Fungal Growth Rating, B. cinerea", "setting": "[6]; vapor phase 0.04 μl/ml", "result": 0.0},
      {"measurement": "Fungal Growth Rating, B. cinerea", "setting": "[6]; vapor phase 0.10 μl/ml", "result": 0.0},
      {"measurement": "Fungal Growth Rating, B. cinerea", "setting": "[6]; vapor phase 0.40 μl/ml", "result": 0.0},
      {"measurement": "Fungal Growth Rating, C. gloeosporioides", "setting": "[7]; vapor phase 0.02 μl/ml", "result": 2.0},
      {"measurement": "Fungal Growth Rating, C. gloeosporioides", "setting": "[7]; vapor phase 0.04 μl/ml", "result": 0.6},
      {"measurement": "Fungal Growth Rating, C. gloeosporioides", "setting": "[7]; vapor phase 0.10 μl/ml", "result": 0.0},
      {"measurement": "Fungal Growth Rating, C. gloeosporioides", "setting": "[7]; vapor phase 0.40 μl/ml", "result": 0.0},
      {"measurement": "activity at 0.01 %", "setting": "[8]; 0.01% in V-8 juice medium", "result": 85.2, "unit": "%"},
      {"measurement": "activity at 0.1 %", "setting": "[8]; 0.10% in V-8 juice medium", "result": 48.7, "unit": "%"},
      {"measurement": "activity at 1 %", "setting": "[8]; 1.00% in V-8 juice medium", "result": 0, "unit": "%"},
      {"measurement": "activity at 0.01 %", "setting": "[9]; 0.01% in V-8 juice medium", "result": 100, "unit": "%"},
      {"measurement": "activity at 0.1 %", "setting": "[9]; 0.10% in V-8 juice medium", "result": 83, "unit": "%"},
      {"measurement": "activity at 1 %", "setting": "[9]; 1.00% in V-8 juice medium", "result": 0, "unit": "%"},
      {"measurement": "activity at 0.01 %", "setting": "[10]; 0.01% in V-8 juice medium", "result": 100, "unit": "%"},
      {"measurement": "activity at 0.1 %", "setting": "[10]; 0.10% in V-8 juice medium", "result": 95.7, "unit": "%"},
      {"measurement": "activity at 1 %", "setting": "[10]; 1.00% in V-8 juice medium", "result": 0, "unit": "%"},
      {"measurement": "oral rat LD50", "setting": "[11]", "result": 3200, "unit": "mg/kg"}
    ]}
  ]
}
